One assay has as its target T1, CD45 (Homo sapiens, UniProt P08575).
T1 construct: Enzyme assays were conducted using human CD45-cytoplasmic domain (Enzo Life Science); purchased Enzo Life Science
T1 sequence (P08575 599-1306 limits assumed): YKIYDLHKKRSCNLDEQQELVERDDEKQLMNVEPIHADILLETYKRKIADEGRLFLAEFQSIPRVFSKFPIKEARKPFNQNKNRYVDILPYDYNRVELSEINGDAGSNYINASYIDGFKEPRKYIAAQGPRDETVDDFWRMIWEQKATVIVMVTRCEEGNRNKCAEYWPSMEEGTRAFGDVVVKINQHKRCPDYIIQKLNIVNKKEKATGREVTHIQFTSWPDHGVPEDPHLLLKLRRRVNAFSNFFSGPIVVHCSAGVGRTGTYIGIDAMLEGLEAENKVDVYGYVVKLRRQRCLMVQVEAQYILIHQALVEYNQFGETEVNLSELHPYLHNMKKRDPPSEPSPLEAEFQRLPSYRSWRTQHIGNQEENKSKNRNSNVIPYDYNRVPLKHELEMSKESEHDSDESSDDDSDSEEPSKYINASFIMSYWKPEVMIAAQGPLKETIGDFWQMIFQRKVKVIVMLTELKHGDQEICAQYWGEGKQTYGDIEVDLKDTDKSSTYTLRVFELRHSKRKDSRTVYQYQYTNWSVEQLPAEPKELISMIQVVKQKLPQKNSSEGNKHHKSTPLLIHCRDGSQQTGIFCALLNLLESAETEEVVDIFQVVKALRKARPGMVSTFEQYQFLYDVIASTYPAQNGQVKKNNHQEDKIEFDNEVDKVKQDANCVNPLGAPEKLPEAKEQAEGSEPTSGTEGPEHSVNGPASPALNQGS
In words: Time-dependent inhibition of CD45 (pre-incubation with inhibitor). It is filed as biochemical. To be noted: compound at 25 μM, enzyme incubated 13 h (FIG. 13). On the procedure:
FIG. 13 is a plot of time-dependent inhibition of CD45 enzyme activity in the presence of compound 1 at a concentration of 25 μM. The enzyme was incubated for 13 h, either alone or in the presence of compound 1.
Time-Dependent Inhibition of CD45 by Compound 1
(§1) The Kitz-Wilson analysis estimated the rate of irreversible inhibition (k3) of CD45 at 0.05 min^−1 for both compounds. To provide additional support for the expected mechanism of inhibition, we measured CD45 activity for an enzyme sample which was pre-incubated with the inhibitor and compared it to an enzyme sample that was only incubated with the inhibitor for a short period.

Assay [1] has as its target T2, human CD45-cytoplasmic domain (Homo sapiens, UniProt P08575).
T2 construct: human CD45-cytoplasmic domain (Enzo Life Science); purchased Enzo Life Science
T2 sequence (P08575 599-1306 limits assumed): T1 sequence (P08575 599-1306 limits assumed)
In words: Phosphatase enzyme inhibition, CD45, fluorogenic substrate DiFMUP. It is filed as biochemical. The following applies: for inhibition of CD45 (in words): DiFMUP substrate. The procedure: Enzyme assays were conducted using human CD45-cytoplasmic domain (Enzo Life Science; diluted to 4 mU/μL in 50 mM HEPES, pH 7.2, 1 mM EDTA, and 0.1% nonidet P-40) (FIG. 6-8), or bovine alkaline phosphatase (New England Bio Labs; diluted to 4 mU/μL in 100 mM NaCl, 50 mM tris-HCl, 10 mM MgCl2 1 mM dithiothreitol, pH 7.9) (FIG. 2-5). Enzyme activity was detected with a fluorogenic substrate (6,8-difluoro-4-methylumbelliferyl phosphate; DiFMUP) (Invitrogen). Assays were performed in black 96-well plates and read in a Spectra Max M2 plate reader (Molecular Devices). For CD45 assays, substrate concentration was between 1 μM to 50 μM, for alkaline phosphatase substrate concentration was between 10 nM to 10 μM. Stock solutions of inhibitors (100 mM of compound 7 in deionized water; and 10 mM of compound 17 in 50% deionized water and 50% DMSO) were prepared and stored at −20° C. Final solutions in microplate wells contained a total volume of 100 μL consisting of 2 μL of diluted enzyme, inhibitor, and DiFMUP substrate diluted to 100 μL in the appropriate buffer. All wells were incubated for 10 min at 37° C. in the plate reader prior to the addition of DiFMUP. After incubation, substrate was added and the plate was read at an excitation maximum of 358 nm and an emission maximum of 450 nm every 30 seconds for 125 min (CD45) or 65 min (alkaline phosphatase).
The Km for DiFMUP with each enzyme was first determined, and the experiment was then repeated in the presence of the inhibitor at a concentration close to an initially estimated K, (TABLE 1). […] Previous reports of PTP inhibition using BBP analogs observed irreversible inhibition of the enzyme.(22) Evaluation of the kinetic data described above using reciprocal plots (FIG. 9-12) was not consistent with pure competitive inhibition of CD45, but this analysis is not conclusive on its own.
as §1

Several values for one entry are separate records, joined by “and”; a condition that tells them apart may be missing. Identical values can stand only once.

Regarding L-BrPmp-OH [compound 1], the “CD45 activity after pre-incubation with inhibitor” value on CD45 was “at long incubation times completely inactivated the enzyme”.

On to `O=P(O)(O)C(Br)c1ccccc1` (centres unmarked) [compound 7, [bromo(phenyl)methyl]phosphonic acid, reference compound], for which, in assay [1], the “inhibition of CD45 (in words)” value is reported as “failure to alter the rate of reaction”. Also, in assay [1] (Kitz-Wilson analysis), the KI entry is reported as “did not give a saturating curve”.

The term Ki denotes the dissociation constant of the complex between target and ligand, obtained from inhibition or displacement. A low value points to tighter binding. Turning to `CC(C)C[C@H](NC(=O)[C@H](Cc1ccc(C(Br)P(=O)(O)O)cc1)NC(=O)[C@@H](N)CC(=O)O)C(=O)O` (some centres unmarked) [compound 17, Asp-BrPmp-Leu], the “inhibition of CD45 (in words)” value in assay [1] is “significant inhibition of the enzyme at low micromolar concentrations”. The molecule further returned a Ki in assay [1] (Kitz-Wilson analysis) of 16 ± 4 µM. Besides, the “k3, rate of enzyme inactivation” value in assay [1] (Kitz-Wilson analysis) is 0.05 min⁻¹ and 0.048 ± 0.003 min⁻¹. Further, the “potency relative to BrPmp alone” value is listed as “approximately 4 fold” in assay [1] (from Kitz-Wilson KI values (Example 8)) and “approximately 7 fold” in assay [1] (initial kinetic data (Example 7)).

These data come from US9399653B2, “Methods and systems for preparing irreversible inhibitors of protein tyrosine phosphatases” (The Governors of the University of Alberta, priority 2010, dated 2016).
